This is an account of results in publication doi:10.1101/2024.12.16.628703v1 (bioRxiv, 2024).

Marks after values point to notes of the source that are not given here.

One data set has as its system E. huxleyi. Briefly: CPP translocation by flow cytometry. Conditions: for FITC-positive cells / FITC-positive cells achieved over the range tested: titer experiment, flow cytometry, average of 2 experiments; for FITC-positive cells achieved over the range tested: 20 to 320 µM CPP. The format is cell-based, Emiliania huxleyi. (Flow cytometry measures light scatter and fluorescence of single cells or particles in a stream.)

In the next data set the test system is G. oceanica. Briefly: CPP translocation by flow cytometry. It counts as cell-based, Gephyrocapsa oceanica. Conditions: for increase in median fluorescence per increase in concentration of 1 µM: regression of titer data, FITC-positive population; for increase in median fluorescence per increase in concentration of 1 µM / regression equation, Median Fluorescence versus CPP concentration: separate experiment; for regression equation, Median Fluorescence versus CPP concentration: titer data 20-320 µM, flow cytometry ex 488 / em 525 nm.

The test system of data set [1] is I. galbana. The experiment in a line: CPP translocation by flow cytometry. It counts as cell-based, Isochrysis galbana. The settings on record: for translocation (FITC-positive cells) / percentage of cells penetrated (FITC-positive): DOE, trypsin wash; for translocation (FITC-positive cells): FITC-Ahx-CPP 2 µM; for translocation (FITC-positive cells) / percentage of cells penetrated (FITC-positive) / FITC-positive cells achieved over the range tested / FITC-positive cells: flow cytometry; for percentage of cells penetrated (FITC-positive): FITC-Ahx-CPP 10 µM; for FITC-positive cells achieved over the range tested / FITC-positive cells: titer experiment, single experiment; for FITC-positive cells achieved over the range tested: 20 to 320 µM CPP.

Data set [2] concerns I. galbana. Briefly: Viability / cell proliferation after CPP transfection. The settings on record: growth curve 14 days. It counts as cell-based, Isochrysis galbana.
In another data set the test system is animal cells. The settings on record: ref [7],[8],[23]; cited from earlier work.
The next data set relates to algae. Conditions: ref [7],[8],[23]; cited from earlier work.
Where [3] appears, read: titer data 20-320 µM, separate experiment, flow cytometry ex 488 / em 525 nm.

“GRKKRRQRRRPPQ [TAT, transactivating transcriptional activator]”: the “regression equation, Median Fluorescence versus CPP concentration” value in the data set with E. huxleyi (setting [3]) is recorded as 15145 + 35.47 * TAT concentration; with G. oceanica, 10953 + 52.48 * TAT concentration; in the data set with I. galbana [1] (setting [3]), 16534 + 11.73 * TAT concentration. Also, the FITC-positive cells result with E. huxleyi (20 µM CPP) was “less than 20%”; in the data set on E. huxleyi (160 µM CPP) it was “over 40%”; in the data set on E. huxleyi (320 µM CPP), “over 60%”. For the same sequence, the entries for the “FITC-positive cells achieved over the range tested” value in the data set with E. huxleyi and in the data set with I. galbana [1] were less than 80% and less than 20%, respectively. The “increase in median fluorescence per increase in concentration of 1 µM” value with G. oceanica is listed as 53 RFU. The “translocation (FITC-positive cells)” value in the data set on I. galbana [1] is listed as “do not translocate”. Besides, the “percentage of cells penetrated (FITC-positive)” value in the data set with I. galbana [1] is “do not translocate”.

On to “LLIILRRRIRKQAHAHSK [pVEC, murine vascular endothelial cadherin]”, for which, in the data set on E. huxleyi (titer experiment 20-320 µM), the “effect on median fluorescence with rising concentration” value is “reaches a plateau from 160 to 320 µM”. Besides, the figures for the “optimal concentration for translocation, irrespective of viability” value in the data set with E. huxleyi (titer experiment 20-320 µM), in the data set with G. oceanica (titer experiment 20-320 µM) and with I. galbana [1] (titer experiment 20-320 µM) were 160 µM, 160 µM and 80 µM, respectively. Besides, the FITC-positive cells in the data set with E. huxleyi (20 µM CPP) was more than 80%; in the data set on E. huxleyi (160 µM CPP), “more than 90%”; in the data set with E. huxleyi (320 µM CPP), “over 95%”; in the data set with I. galbana [1] (20 µM CPP), “less than 20%”; with I. galbana [1] (80 µM CPP), “over 90%”; with I. galbana [1] (160 µM CPP) it was “approximately 85%”. Besides, the “FITC-positive cells achieved over the range tested” value is on record as “more than 80%” in the data set with E. huxleyi and 80% in the data set on I. galbana [1]. Moreover, the “increase in median fluorescence per increase in concentration of 1 µM” value in the data set on G. oceanica is given as 184 RFU. In addition, in the data set on G. oceanica, the “regression equation, Median Fluorescence versus CPP concentration” value is listed as 16133 + 184.1 * pVEC concentration. Moreover, the “percent-positive achieved over the range tested” value with G. oceanica (titer experiment, 20 to 320 µM CPP, flow cytometry, average of 2 experiments) is recorded as “more than 80%”. For the same sequence, the “percentage of cells penetrated (FITC-positive)” value with I. galbana [1] worked out at 39%. In addition, the “proliferation of cells sorted for high FITC fluorescence” value with I. galbana [2] (160 and 320 µM pVEC, sorted by FACS) is “proliferation of viable cells”. The “viability after CPP treatment” value in the data set with I. galbana [2] (pVEC at 20 µM, sorted cells) is “apparent decrease in viability”.

For “RQIKIWFQNRRMKWKK [pAntp, antennapedia homeodomain]”, the “translocation (FITC-positive cells)” value in the data set with I. galbana [1] is reported as “do not translocate”. The figures for the “cytotoxicity at concentrations as low as” value in the data set on animal cells and with algae were 40 µM and 10 µM, respectively.
